Test results taken from publication PMC8000185 (International Journal of Molecular Sciences, 2021).

Tests used:
[1] = molecular target: T1, urokinase from human kidney cells (human uPA) (Homo sapiens, UniProt P00749); test: uPA inhibition assay (fluorescence-based, purified enzyme); assay type: biochemical; conditions: for IC50: purified enzyme, Z-Gly-Gly-Arg-AMC substrate, number in parentheses after value, read-out: uPA IC50
T1 construct: low molecular weight active human uPA; purchased Sigma-Aldrich U4010; host or cells: human kidney cells

[2] = molecular target: T2, NHE1 (Homo sapiens, UniProt P19634); test: Plate-based NHE1 inhibition assay (BCECF pHi recovery, 96-well plate reader); assay type: cell-based; conditions: for inhibition at 1 µM / inhibition at 10 µM: MDA-MB-231 cells, plate reader
T2 construct: endogenous in cells; host or cells: MDA-MB-231
T2 sequence (P19634 whole entry): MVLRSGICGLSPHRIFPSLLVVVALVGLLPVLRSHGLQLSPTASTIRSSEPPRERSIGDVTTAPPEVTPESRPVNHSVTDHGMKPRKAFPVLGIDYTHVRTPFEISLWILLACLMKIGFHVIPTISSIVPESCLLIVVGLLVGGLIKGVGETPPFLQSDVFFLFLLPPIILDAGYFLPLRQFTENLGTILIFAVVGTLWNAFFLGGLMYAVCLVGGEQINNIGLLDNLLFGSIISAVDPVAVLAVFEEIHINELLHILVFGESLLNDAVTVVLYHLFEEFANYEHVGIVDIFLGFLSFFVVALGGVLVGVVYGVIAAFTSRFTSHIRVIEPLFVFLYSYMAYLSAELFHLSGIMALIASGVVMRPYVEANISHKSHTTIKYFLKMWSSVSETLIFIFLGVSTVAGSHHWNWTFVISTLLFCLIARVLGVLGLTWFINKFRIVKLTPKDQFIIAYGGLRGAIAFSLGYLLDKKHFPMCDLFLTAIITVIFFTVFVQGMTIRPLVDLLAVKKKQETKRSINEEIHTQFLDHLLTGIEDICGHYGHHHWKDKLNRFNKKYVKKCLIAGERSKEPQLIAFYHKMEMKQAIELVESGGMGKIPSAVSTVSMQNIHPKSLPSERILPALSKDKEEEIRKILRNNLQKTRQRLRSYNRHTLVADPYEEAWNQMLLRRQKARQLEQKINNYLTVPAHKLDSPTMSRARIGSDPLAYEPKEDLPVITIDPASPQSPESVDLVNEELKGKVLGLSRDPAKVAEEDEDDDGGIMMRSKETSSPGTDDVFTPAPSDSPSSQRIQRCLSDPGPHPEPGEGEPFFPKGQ
Description: To perform NHE1 screening with increased throughput, we adapted the conventional cuvette-based NHE1 activity assay to a simple new 96-well plate format using MDA-MB-231 cells that were compatible with common laboratory fluorescence plate readers (see Section 4 for details).
Culture media were removed and replaced with 200 µL 0.2% FBS-containing media with incubation for 3–4 h to stimulate NHE1 activity, followed by incubation for 30 min in the presence of 5 µM 2′,7′-bis(carboxyethyl)-5(6)-carboxyfluorescein-acetoxymethyl ester (BCECF-AM, cat #ab143463, Abcam, Cambridge, United Kingdom). Cells were then washed with 100 µL/well Na^+-free acid-load buffer: 10 mM NH4Cl, 1.8 mM CaCl2, 90 mM N-methyl-D-glucamine (from 1 M stock titrated to pH 7.4 with HCl), 5 mM glucose, 15 mM HEPES, 5 mM KCl, 1 mM MgCl2 (pH 7.5, adjusted with KOH), and incubated at 37 °C for a further 30 min. Acid-load buffer was removed and replaced with Na^+-containing assay buffer: 100 mM NaCl, 1.8 mM CaCl2, 5 mM glucose, 15 mM HEPES, 5 mM KCl, 1 mM MgCl2 containing serial dilution of each compound or DMSO vehicle, and changes in fluorescence were read immediately using a BMG Labtech POLARstar OMEGA (BMG Labtech GmbH, Offenburg, Germany) plate reader according to the parameters in Table S1. Compounds were tested at n = 3 technical replicates per concentration per plate. BCECF-AM-free cells were treated with matched concentrations of each compound to correct for intrinsic fluorescence. DMSO was present in all wells at a final concentration of 1% v/v. Inhibition of NHE1-mediated pHi recovery was determined by ratiometric calculation of the change in blank-corrected pH-sensitive fluorescence divided by the isobestic fluorescence for each well over time. […] (0% activity) controls present on each plate. IC50 values were determined through fitting of Log-10 transformed data using the “log(inhibitor) versus normalised response–variable slope” non-linear function in GraphPad PRISM v8.0 software package (GraphPad Software, San Diego, CA, USA).

[3] = Cell viability (cytotoxicity) assay; assay type: cell-based; conditions: human, MDA-MB-231 cells, 48 h treatment
Description: On the day of treatment, respective compounds were serially diluted using a semi-logarithmic dilution series from 20 mM stocks in neat DMSO into DMEM-high glucose media (10% v/v FBS) in a separate 96-well plate and under sterile conditions. Thereafter, 10 μL of the diluted compounds at their respective concentrations (n = 4) were added to the cells. […] Vehicle media blanks or drug blanks were also included to correct for inherent colour of the compounds and phenol red-containing media. Following 48 h treatment, 20 μL CellTitre 96® Aqueous One Solution Cell Proliferation Assay (Promega, Madison, USA) was added to each well, plates were incubated for 2 h, and absorbance was measured at 490 nm using a SpectraMax Plus 384-well plate reader (Molecular Devices LLC, San Jose, USA) and Softmax PRO v7.0 software. Blank-corrected data were analysed and graphed using GraphPad PRISM v8.0 software (GraphPad Software, San Diego, CA USA).

[4] = molecular target: T2, NHE1; test: Cuvette-based NHE1 inhibition assay; assay type: cell-based; conditions: MDA-MB-231 cells, cuvette assay; read-out: NHE1 Cuvette IC50
Description: Performed as described in [53]. Briefly, MDA-MB-231 cells were grown to ~80–90% confluence on glass coverslips. Then, 3 µM BCECF were loaded into cells in 400 µL serum-free medium and the fluorescence was measured using a PTI Deltascan spectrofluorometer (Horiba Ltd., Kyoto, Japan). […] A calibration curve of pHi fluorescence was performed for every sample using nigericin [55]. […] IC50 values were determined through fitting of Log-10 transformed data using the “log(inhibitor) versus normalised response–variable slope” non-linear function in GraphPad PRISM v8.0 software package (GraphPad Software, San Diego, USA).

Compound `Cc1ccc2oc(-c3nc(C(=O)NC(=N)N)c(N)nc3N)cc2c1` [compound 6] has an IC50 [1] of 1.05 µM, an inhibition at 1 µM [2] of 0% and an inhibition at 10 µM [2] of 71%. The IC50 at 48 h [3] was 11.7 µM.
`N=C(N)NC(=O)c1nc(-c2cc3cc(Br)ccc3o2)c(N)nc1N` [compound 12] gave an IC50 [1] of 5.93 µM, an inhibition at 1 µM [2] of 0% and an inhibition at 10 µM [2] of 97%. The IC50 at 48 h [3] was 32.1 µM.
In the case of `N=C(N)NC(=O)c1nc(-c2cc3cc(F)cc(F)c3o2)c(N2CCCCCC2)nc1N` [compound 17], the IC50 [1] is reported as 0.38 ± 0.01 µM, the inhibition at 1 µM [2] is reported as 0% and the inhibition at 10 µM [2] is reported as 90%. For the same compound, the IC50 at 48 h [3] was 8.8 µM.
Work on `N=C(N)NC(=O)c1nc(Cl)c(N2CCCOCC2)nc1N` [compound 30] yielded an IC50 [1] of 5.72 µM, an inhibition at 1 µM [2] of 91% and an inhibition at 10 µM [2] of 100%. For the same compound, the “NHE1 selectivity ratio (selectivity over uPA)” value ([2]; NHE1 over uPA) was 67 fold, the IC50 ([2]; plate-reader value as printed in nM in text, read-out: NHE1 IC50) was 85 nM and the IC50 [4] was 0.093 µM. It also gave an IC50 at 48 h [3] of 95.6 µM.
Compound `N=C(N)NC(=O)c1nc(I)c(N)nc1N` [compound 3] has an IC50 [1] of 1.58 µM, an inhibition at 1 µM [2] of 36% and an inhibition at 10 µM [2] of 86%. The IC50 at 48 h [3] was > 100 µM.
For `N=C(N)NC(=O)c1nc(-c2cc3ccccc3o2)c(N2CCCCC2)nc1N` [compound 32], the IC50 [1] was 1.88 µM, the inhibition at 1 µM [2] was 69% and the inhibition at 10 µM [2] was 100%. For the same compound, the IC50 at 48 h [3] was 16.2 µM.
`N=C(N)NC(=O)c1nc(-c2ccc(C(F)(F)F)cc2)c(N2CCCCCC2)nc1N` [compound 23] gave an IC50 [1] of 6.91 µM, an inhibition at 1 µM [2] of 77% and an inhibition at 10 µM [2] of 100%. For the same compound, the IC50 at 48 h [3] was 14.7 µM.
With `COc1ccc2oc(-c3nc(C(=O)NC(=N)N)c(N)nc3N)cc2c1` [compound 14] the “higher uPA activity than its HMA congener 15” value [1] was > 3 fold, the IC50 [1] was 0.467 ± 0.022 µM and the inhibition at 1 µM [2] was 4%. For the same compound, the inhibition at 10 µM [2] was 36% and the IC50 at 48 h [3] was > 100 µM.
In the case of `N=C(N)NC(=O)c1nc(-c2cc3cc(Br)ccc3o2)c(N2CCCCCC2)nc1N` [compound 13], the IC50 [1] is reported as 2.56 µM, the inhibition at 1 µM [2] is reported as 0% and the inhibition at 10 µM [2] is reported as 0%. The IC50 at 48 h [3] was 6.2 µM.
`COc1ncc(-c2nc(C(=O)NC(=N)N)c(N)nc2N2CCCOCC2)cn1` [compound 43] showed an IC50 [1] of 0.267 ± 0.014 µM, an inhibition at 1 µM [2] of 0% and an inhibition at 10 µM [2] of 16%. The IC50 at 48 h [3] was > 100 µM.
`N=C(N)NC(=O)c1nc(-c2cc3cnccc3o2)c(N2CCCCCC2)nc1N` [compound 19] showed an IC50 [1] of 0.164 µM, an inhibition at 1 µM [2] of 23% and an inhibition at 10 µM [2] of 100%. The IC50 at 48 h [3] was 69.4 µM.
